Molecules are shown by their SMILES. Read-outs that look alike come from different tables or passages of the source.

The source of these data is patent US20210205236A1, “THERAPEUTIC COMBINATIONS OF BOSWELLIA EXTRACT AND CANNABINOIDS” (priority 2018, published 2021).

The target in assay [1] is T1, CB1 receptor (Homo sapiens, UniProt P21554).
T1 construct: expressed in transfected cells
It counts as cell-based.

Assay [2] has as its target T1, CB1 receptor. In words: cell-based. It counts as cell-based.
Setting [3] is: THCA or THC 10 μM without AKBA, CP55940-induced activity = 100%.
[4] abbreviates: THCA or THC 10 μM without AKBA, Table 3 data re-expressed as fold change.

T1 sequence (P21554 whole entry): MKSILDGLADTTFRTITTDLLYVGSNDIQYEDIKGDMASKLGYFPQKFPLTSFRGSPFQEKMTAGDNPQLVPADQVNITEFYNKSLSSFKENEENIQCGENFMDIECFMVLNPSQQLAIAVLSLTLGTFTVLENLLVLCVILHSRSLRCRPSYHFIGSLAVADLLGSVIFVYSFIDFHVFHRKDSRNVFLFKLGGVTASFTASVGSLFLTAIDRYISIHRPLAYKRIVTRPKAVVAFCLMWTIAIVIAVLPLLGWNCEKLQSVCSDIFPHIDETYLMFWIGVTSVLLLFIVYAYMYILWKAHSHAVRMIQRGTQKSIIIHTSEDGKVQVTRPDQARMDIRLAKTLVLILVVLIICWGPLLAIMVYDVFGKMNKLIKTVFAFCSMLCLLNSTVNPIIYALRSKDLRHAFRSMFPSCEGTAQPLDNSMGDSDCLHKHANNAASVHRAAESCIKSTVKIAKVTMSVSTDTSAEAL

`CCCCCCC(C)(C)c1ccc([C@@H]2C[C@H](O)CC[C@H]2CCCO)c(O)c1` [CP, CP-55940, reference compound]: the “Experiment 1 Fold change” value on CB1 receptor [1] and on CB1 receptor [2] was 2.5 Fold change in each case. The “Experiment 2 Fold change” value at CB1 receptor [1] and on CB1 receptor [2] was 2.5 Fold change throughout. In addition, the “Experiment 3 Fold change” value on CB1 receptor [1] and at CB1 receptor [2] was 2.5 Fold change in each case. Besides, the activity at […] on CB1 receptor [2] (read-out: Experiment 1 % of activity), at CB1 receptor [2] (read-out: Experiment 2 % of activity) and at CB1 receptor [2] (read-out: Experiment 3 % of activity) was 100% in each case.
Regarding `CCCCCc1cc2c(c(O)c1C(=O)O)[C@@H]1C=C(C)CC[C@H]1C(C)(C)O2` [THCA, tetrahydrocannabinolic acid], at CB1 receptor [1] (THCA or THC alone, 10 μM), the “Conclusions: Is CB1R agonist effect observed?” value is recorded as “Negative (Only treatments that the mean of three consecutive independent experiments shows a positive result: CB1R activity ≥ 2.5-fold increase or ≥ 4-fold increase are considered CB1R agonists or CB1R positive allosteric modulators)”, the “Experiment 1 Fold change” value amounted to 1.2 Fold change, the “Experiment 2 Fold change” value came to 1.1 Fold change and the “Experiment 3 Fold change” value came to 0.8 Fold change. In addition, the “Effect of cannabinoid on AKBA CB1R positive allosteric activity” value at CB1 receptor [2] (AKBA 50 and 100 μM, THCA 10 μM or CBD 1 μM) is given as “reduced the AKBA allosteric activity”. The “Conclusions: Is CB1R antagonist effect observed?” value at CB1 receptor [2] (THCA or THC 10 μM without AKBA, % of activity data) was “Negative (Only treatments that the mean of three consecutive independent experiments show a positive result (CB1R activity ≤ 50%) are considered antagonists of CB1R activity)”. Moreover, on CB1 receptor [2] (setting [3]), the “Experiment 1 % of activity” value is 163.2%, the “Experiment 2 % of activity” value came to 118.4% and the “Experiment 3 % of activity” value is 86.5%. At CB1 receptor [2] (setting [4]), the “Experiment 1 Fold change” value is 4.1 Fold change, the “Experiment 2 Fold change” value came out at 3.0 Fold change and the “Experiment 3 Fold change” value is listed as 2.2 Fold change. Besides, the “Conclusions: Is CB1R antagonist effect observed?” value at CB1 receptor [2] (THCA or THC 10 μM without AKBA, positive allosteric activity, fold change data) is “Negative (Only treatments that the mean of three consecutive independent experiments show a positive result (CB1R activity ≥ 4-fold change) are considered positive CB1R allosteric agonists)”.
